Data from patent publication US20100267561A1, “HERBICIDAL PYRIDAZINONE DERIVATIVES” (priority 2007, published 2010).

Key:
Format in all cases: in vivo
[1] = system: large crabgrass (Digitaria sanguinalis); experiment: Test A pre-/postemergence plant response
Description: (§1) Seeds of species selected from barnyardgrass (Echinochloa crus-galli), large crabgrass (Digitaria sanguinalis), giant foxtail (Setaria faberi), blackgrass (Alopecurus myosuroides), canarygrass (Phalaris minor), morningglory (Ipomoea coccinea), pigweed (Amaranthus retroflexus), velvetleaf (Abutilon theophrasti), wheat (Triticum aestivum), and corn (Zea mays) were planted into a blend of loam soil and sand and treated preemergence with a directed soil spray using test chemicals formulated in a non-phytotoxic solvent mixture which included a surfactant. At the same time these species were also treated with postemergence applications of test chemicals formulated in the same manner.
(§2) Plants ranged in height from 2 to 10 cm and were in the one- to two-leaf stage for the postemergence treatment. Treated plants and untreated controls were maintained in a greenhouse for approximately 10 days, after which time all treated plants were compared to untreated controls and visually evaluated for injury. Plant response ratings, summarized in Table A, are based on a 0 to 100 scale where 0 is no effect and 100 is complete control. A dash (-) response means no test results.

[2] = system: barnyardgrass (Echinochloa crus-galli); experiment: Test A pre-/postemergence plant response
Description: as §1, §2

[3] = system: giant foxtail (Setaria faberi); experiment: Test A pre-/postemergence plant response
Description: as §1, §2

[4] = system: pigweed (Amaranthus retroflexus); experiment: Test A pre-/postemergence plant response
Description: as §1, §2

[5] = system: wheat (Triticum aestivum); experiment: Test A pre-/postemergence plant response
Description: as §1, §2

[6] = system: canarygrass (Phalaris minor); experiment: Test A pre-/postemergence plant response
Description: as §1, §2

[7] = system: blackgrass (Alopecurus myosuroides); experiment: Test A pre-/postemergence plant response
Description: as §1, §2

corn (Zea mays) = experiment: Test A pre-/postemergence plant response
Description: as §1, §2

[8] = system: morningglory (Ipomoea coccinea); experiment: Test A pre-/postemergence plant response
Description: as §1, §2

[9] = system: velvetleaf (Abutilon theophrasti); experiment: Test A pre-/postemergence plant response
Description: as §1, §2

[10] = system: barnyardgrass (Echinochloa crus-galli); experiment: Test B flooded paddy test plant response
Description: (§3) Plant species in the flooded paddy test consisted of rice (Oryza sativa), umbrella sedge (Cyperus difformis), ducksalad (Heteranthera limosa) and barnyardgrass (Echinochloa crus-galli) grown to the 2-leaf stage for testing. At time of treatment, test pots were flooded to 3 cm above the soil surface, treated by application of test compounds directly to the paddy water, and then maintained at that water depth for the duration of the test. Treated plants and controls were maintained in a greenhouse for 13 to 15 days, after which time all species were compared to controls and visually evaluated. Plant response ratings, summarized in Table B, are based on a scale of 0 to 100 where 0 is no effect and 100 is complete control. A dash (-) response means no test result.

[11] = system: umbrella sedge (Cyperus difformis); experiment: Test B flooded paddy test plant response
Description: as §3

[12] = system: ducksalad (Heteranthera limosa); experiment: Test B flooded paddy test plant response
Description: as §3

rice (Oryza sativa) = experiment: Test B flooded paddy test plant response
Description: as §3

[13] = Postemergence, 31 g ai/ha, 0 to 100 scale (0 no effect, 100 complete control)
[14] = Postemergence, 125 g ai/ha, 0 to 100 scale, 0 no effect, 100 complete control
[15] = Preemergence, 31 g ai/ha, 0 to 100 scale, 0 is no effect, 100 is complete control
[16] = Preemergence, 125 g ai/ha, 0 to 100 scale (0 no effect, 100 complete control)
[17] = Postemergence, 500 g ai/ha, 0 to 100 scale, 0 no effect, 100 complete control
[18] = Preemergence, 500 g ai/ha, 0 to 100 scale (0 no effect, 100 complete control)
[19] = Flood (flooded paddy test), 62 g ai/ha, scale 0 to 100, 0 no effect, 100 complete control
[20] = Flood (flooded paddy test), 125 g ai/ha, scale 0 to 100, 0 no effect, 100 complete control
[21] = Flood (flooded paddy test), 250 g ai/ha, scale 0 to 100, 0 no effect, 100 complete control
[22] = Flood, 31 g ai/ha, scale 0 to 100

CCc1cc(-c2ccc(C(F)(F)F)cc2)nn1-c1c(OC(=O)C2CCCCC2)cnn(C)c1=O [Compound 95]
80: Plant response rating, Wheat [5, 14] | Plant response rating, Wheat [5, 15]
50: Plant response rating, Barnyardgrass [2, 15]
90: Plant response rating, Crabgrass, Large [1, 13] | Plant response rating, Crabgrass, Large [1, 15] | Plant response rating, Wheat [5, 16] | Plant response rating, Canarygrass [6, 13] | Plant response rating, Blackgrass [7, 15] | Plant response rating, Corn (corn (Zea mays); [13]) | Plant response rating, Corn (corn (Zea mays); [16])
0: Plant response rating, Pigweed [4, 13] | Plant response rating, Pigweed [4, 14] | Plant response rating, Pigweed [4, 15] | Plant response rating, Pigweed [4, 16]
70: Plant response rating, Wheat [5, 13] | Plant response rating, Canarygrass [6, 15] | Plant response rating, Blackgrass [7, 13]
100: Plant response rating, Crabgrass, Large [1, 14] | Plant response rating, Crabgrass, Large [1, 16] | Plant response rating, Barnyardgrass [2, 13] | Plant response rating, Barnyardgrass [2, 14] | Plant response rating, Barnyardgrass [2, 16] | Plant response rating, Foxtail, Giant [3, 13] | Plant response rating, Foxtail, Giant [3, 14] | Plant response rating, Foxtail, Giant [3, 15] | Plant response rating, Foxtail, Giant [3, 16] | Plant response rating, Canarygrass [6, 14] | Plant response rating, Canarygrass [6, 16] | Plant response rating, Blackgrass [7, 14] | Plant response rating, Blackgrass [7, 16] | Plant response rating, Corn (corn (Zea mays); [14])
40: Plant response rating, Corn (corn (Zea mays); [15])

COc1nn(C)c(=O)c(-n2nc(-c3ccc(Br)cc3)cc2C)c1O [Compound 93]
80: Plant response rating, Wheat [5, 14] | Plant response rating, Wheat [5, 16] | Plant response rating, Canarygrass [6, 13] | Plant response rating, Corn (corn (Zea mays); [13])
50: Plant response rating, Wheat [5, 15]
30: Plant response rating, Blackgrass [7, 15] | Plant response rating, Corn (corn (Zea mays); [15])
70: Plant response rating, Wheat [5, 13]
10: Plant response rating, Canarygrass [6, 15]
90: Plant response rating, Foxtail, Giant [3, 15] | Plant response rating, Canarygrass [6, 16] | Plant response rating, Blackgrass [7, 13]
20: Plant response rating, Crabgrass, Large [1, 15] | Plant response rating, Barnyardgrass [2, 15]
0: Plant response rating, Pigweed [4, 13] | Plant response rating, Pigweed [4, 14] | Plant response rating, Pigweed [4, 15] | Plant response rating, Pigweed [4, 16]
100: Plant response rating, Crabgrass, Large [1, 13] | Plant response rating, Crabgrass, Large [1, 14] | Plant response rating, Crabgrass, Large [1, 16] | Plant response rating, Barnyardgrass [2, 13] | Plant response rating, Barnyardgrass [2, 14] | Plant response rating, Barnyardgrass [2, 16] | Plant response rating, Foxtail, Giant [3, 13] | Plant response rating, Foxtail, Giant [3, 14] | Plant response rating, Foxtail, Giant [3, 16] | Plant response rating, Canarygrass [6, 14] | Plant response rating, Blackgrass [7, 14] | Plant response rating, Blackgrass [7, 16] | Plant response rating, Corn (corn (Zea mays); [14])
60: Plant response rating, Corn (corn (Zea mays); [16])

Cc1nn(-c2ccc(Cl)cc2)cc1-c1c(O)cnn(C)c1=O [Compound 29]
40: Plant response rating, Crabgrass, Large [1, 18]
80: Plant response rating, Foxtail, Giant [3, 17]
20: Plant response rating, Wheat [5, 17]
10: Plant response rating, Barnyardgrass [2, 14]
100: Plant response rating, Foxtail, Giant [3, 18]
70: Plant response rating, Barnyardgrass [2, 18]
50: Plant response rating, Crabgrass, Large [1, 17] | Plant response rating, Barnyardgrass [2, 17]
60: Plant response rating, Foxtail, Giant [3, 16]
0: Plant response rating, Crabgrass, Large [1, 14] | Plant response rating, Crabgrass, Large [1, 16] | Plant response rating, Barnyardgrass [2, 16] | Plant response rating, Foxtail, Giant [3, 14] | Plant response rating, Pigweed [4, 14] | Plant response rating, Pigweed [4, 17] | Plant response rating, Pigweed [4, 16] | Plant response rating, Pigweed [4, 18] | Plant response rating, Wheat [5, 14] | Plant response rating, Wheat [5, 16] | Plant response rating, Wheat [5, 18] | Plant response rating, Morningglory [8, 14] | Plant response rating, Morningglory [8, 17] | Plant response rating, Morningglory [8, 16] | Plant response rating, Morningglory [8, 18] | Plant response rating, Corn (corn (Zea mays); [14]) | Plant response rating, Corn (corn (Zea mays); [17]) | Plant response rating, Corn (corn (Zea mays); [16]) | Plant response rating, Corn (corn (Zea mays); [18]) | Plant response rating, Velvetleaf [9, 14] | Plant response rating, Velvetleaf [9, 17] | Plant response rating, Velvetleaf [9, 16] | Plant response rating, Velvetleaf [9, 18] | Plant response rating, Barnyardgrass [10, 19] | Plant response rating, Barnyardgrass [10, 20] | Plant response rating, Barnyardgrass [10, 21] | Plant response rating, Barnyardgrass [10, 22] | Plant response rating, Sedge, Umbrella [11, 19] | Plant response rating, Sedge, Umbrella [11, 20] | Plant response rating, Sedge, Umbrella [11, 21] | Plant response rating, Sedge, Umbrella [11, 22] | Plant response rating, Ducksalad [12, 19] | Plant response rating, Ducksalad [12, 20] | Plant response rating, Ducksalad [12, 21] | Plant response rating, Ducksalad [12, 22] | Plant response rating, Rice (rice (Oryza sativa); [19]) | Plant response rating, Rice (rice (Oryza sativa); [20]) | Plant response rating, Rice (rice (Oryza sativa); [21]) | Plant response rating, Rice (rice (Oryza sativa); [22])
